In patent publication US20250026721A1, “COMPOUNDS AND METHODS FOR MODULATING RAS-PI3K” (Vividion Therapeutics, Inc., priority 2023, published 2025) one finds IC50 data, which are given here for 23 molecules.

Molecules are shown by their SMILES.

The target of one test is T1, PIK3CA_C242 (Homo sapiens, UniProt P42336).
T1 construct: endogenous in cells; host or cells: Jurkat cell lysate
Description: Proteomic TE50 (IA-DTB / TMT mass spectrometry) in Jurkat cell lysate. Type of test: binding. As to conditions: 1 hour at rt, 7-point dose response. Put shortly:
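Cysteine engagement was read by targeted TMT MS3 of the IA-DTB-labelled, streptavidin-enriched C242 tryptic peptide. Beforehand, Jurkat lysate was exposed to a 7-point 1:5 compound series for 1 h at rt, then to 200 μM IA-DTB for 1 h. Reporter S/N curves gave TE50.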

Another test addresses T2, PIK3CA (Homo sapiens, UniProt P42336).
T2 construct: endogenous in cells; host or cells: Jurkat cell lysate
Description: In vitro ELISA target engagement assay for PIK3CA in Jurkat cellular lysate (competition with PIK3CA Biotin Probe). Type of test: binding. As to conditions: 1 hour at rt, then 500 nM PIK3CA Biotin Probe, read-out: Elisa Target Engagement Assay (TE50). A digest of the protocol: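 Competition format in Jurkat lysate: compound (serial dilutions, top 200 μM) for 1 h at rt, then 500 nM final biotinylated PIK3CA probe for 1 h at rt. Sandwich ELISA with capture antibody and Neutravidin-HRP luminescence read-out measured probe-labelled PIK3CA, giving TE50.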

T2 sequence (P42336 whole entry): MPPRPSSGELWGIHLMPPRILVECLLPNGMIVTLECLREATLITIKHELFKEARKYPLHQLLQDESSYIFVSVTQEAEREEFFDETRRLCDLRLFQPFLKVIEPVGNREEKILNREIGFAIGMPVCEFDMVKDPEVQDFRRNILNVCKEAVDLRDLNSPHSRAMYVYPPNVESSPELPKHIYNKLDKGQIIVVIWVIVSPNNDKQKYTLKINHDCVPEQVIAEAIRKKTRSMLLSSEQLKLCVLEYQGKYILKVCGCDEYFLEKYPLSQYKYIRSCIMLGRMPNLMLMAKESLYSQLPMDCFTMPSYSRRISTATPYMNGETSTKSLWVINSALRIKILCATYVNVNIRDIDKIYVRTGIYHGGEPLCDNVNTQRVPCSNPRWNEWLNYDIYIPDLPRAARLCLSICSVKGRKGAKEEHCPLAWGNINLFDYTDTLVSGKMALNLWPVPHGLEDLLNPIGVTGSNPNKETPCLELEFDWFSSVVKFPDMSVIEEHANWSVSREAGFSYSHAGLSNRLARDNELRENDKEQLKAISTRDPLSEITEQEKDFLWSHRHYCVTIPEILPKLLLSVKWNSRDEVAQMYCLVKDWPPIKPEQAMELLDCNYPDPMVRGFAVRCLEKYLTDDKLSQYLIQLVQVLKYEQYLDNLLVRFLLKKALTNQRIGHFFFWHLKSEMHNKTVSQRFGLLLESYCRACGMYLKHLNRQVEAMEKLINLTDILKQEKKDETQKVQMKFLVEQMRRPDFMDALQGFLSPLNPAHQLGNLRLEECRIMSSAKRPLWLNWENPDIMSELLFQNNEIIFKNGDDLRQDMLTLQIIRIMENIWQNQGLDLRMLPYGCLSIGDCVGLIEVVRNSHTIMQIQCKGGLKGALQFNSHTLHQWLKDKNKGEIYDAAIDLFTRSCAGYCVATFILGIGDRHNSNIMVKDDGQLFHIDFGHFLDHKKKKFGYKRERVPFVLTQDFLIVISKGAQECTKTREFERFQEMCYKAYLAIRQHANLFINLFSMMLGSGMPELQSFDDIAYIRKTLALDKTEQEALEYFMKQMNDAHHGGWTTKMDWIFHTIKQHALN
T2 sequence (P27986 whole entry partner): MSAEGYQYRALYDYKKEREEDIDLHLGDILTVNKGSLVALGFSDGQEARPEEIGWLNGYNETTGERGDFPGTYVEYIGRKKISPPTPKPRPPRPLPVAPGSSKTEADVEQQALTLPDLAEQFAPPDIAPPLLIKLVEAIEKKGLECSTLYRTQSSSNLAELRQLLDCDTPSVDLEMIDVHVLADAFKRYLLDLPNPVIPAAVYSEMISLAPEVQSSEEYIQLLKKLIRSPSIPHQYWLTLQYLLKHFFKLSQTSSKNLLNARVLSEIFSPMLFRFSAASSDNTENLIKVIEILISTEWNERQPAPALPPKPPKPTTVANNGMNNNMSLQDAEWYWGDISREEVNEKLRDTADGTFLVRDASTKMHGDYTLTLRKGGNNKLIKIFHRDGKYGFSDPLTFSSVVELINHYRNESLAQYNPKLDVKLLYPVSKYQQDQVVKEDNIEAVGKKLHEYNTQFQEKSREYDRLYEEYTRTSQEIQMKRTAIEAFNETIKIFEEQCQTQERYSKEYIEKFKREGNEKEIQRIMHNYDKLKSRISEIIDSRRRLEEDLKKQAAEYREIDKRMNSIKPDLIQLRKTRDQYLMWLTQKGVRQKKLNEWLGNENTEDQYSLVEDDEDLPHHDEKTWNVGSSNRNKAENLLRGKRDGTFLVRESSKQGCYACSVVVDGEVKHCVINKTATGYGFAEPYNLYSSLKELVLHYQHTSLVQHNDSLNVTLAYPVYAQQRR
T1 sequence (P42336 whole entry): as the sequence (P42336 whole entry) above
T1 sequence (P27986 whole entry partner): as the sequence (P27986 whole entry partner) above

For the molecule `C=Cc1ccc(S(=O)(=O)N2CCC(F)(C(=O)N[C@H](C)/C=C\S(C)(=O)=O)CC2)c(-c2ccccc2Cl)c1` [Compound 107, (R,Z)-1-((2′-chloro-5-vinyl-[1,1′-biphenyl]-2-yl)sulfonyl)-4-fluoro-N-(4-(methylsulfonyl)but-3-en-2-yl)piperidine-4-carboxamide], the results for the IC50 on PIK3CA_C242 and on PIK3CA were 320 nM and 200 nM, respectively.

`Cc1ccccc1-c1cc(C(C)C)ccc1S(=O)(=O)N1CCC(F)(C(=O)N[C@H](C)/C=C\S(C)(=O)=O)CC1` [Compound 115, (R,Z)-4-fluoro-1-((5-isopropyl-2′-methyl-[1,1′-biphenyl]-2-yl)sulfonyl)-N-(4-(methylsulfonyl)but-3-en-2-yl)piperidine-4-carboxamide]: the results for the IC50 against PIK3CA_C242 and on PIK3CA were 410 nM and 520 nM, respectively.

For the molecule `Cc1ccccc1-c1cc(N2CCOCC2)ccc1S(=O)(=O)N1CCC(F)(C(=O)N[C@H](C)/C=C\S(C)(=O)=O)CC1` [Compound 122, (R,Z)-4-fluoro-1-((2′-methyl-5-morpholino-[1,1′-biphenyl]-2-yl)sulfonyl)-N-(4-(methylsulfonyl)but-3-en-2-yl)piperidine-4-carboxamide], the IC50 against PIK3CA_C242 was determined as 490 nM; at PIK3CA, 610 nM.

Regarding `COc1ccc(S(=O)(=O)N2CCC(F)(C(=O)N[C@@H](C)/C=C\S(C)(=O)=O)CC2)c(-c2ccccc2OC)c1` [Compound 219, (S,Z)-1-((2′,5-dimethoxy-[1,1′-biphenyl]-2-yl)sulfonyl)-4-fluoro-N-(4-(methylsulfonyl)but-3-en-2-yl)piperidine-4-carboxamide], the IC50 at PIK3CA_C242 came out at 1090 nM; on PIK3CA, 970 nM.

For `COc1cc(-c2ccccc2)c(S(=O)(=O)N2CCC(F)(C(=O)N[C@@H](C)/C=C\S(C)(=O)=O)CC2)cn1` [Compound 192, (S,Z)-4-fluoro-1-((6-methoxy-4-phenylpyridin-3-yl)sulfonyl)-N-(4-(methylsulfonyl)but-3-en-2-yl)piperidine-4-carboxamide], the values for the IC50 on PIK3CA_C242 and on PIK3CA were 240 nM and 280 nM, respectively.

As for `C=C(C)c1ccc(S(=O)(=O)N2CCC(F)(C(=O)N[C@H](C)/C=C\S(C)(=O)=O)CC2)c(-c2ccccc2C)c1` [Compound 110, (R,Z)-4-fluoro-1-((2′-methyl-5-(prop-1-en-2-yl)-[1,1′-biphenyl]-2-yl)sulfonyl)-N-(4-(methylsulfonyl)but-3-en-2-yl)piperidine-4-carboxamide], the IC50 against PIK3CA_C242 was 363 nM; at PIK3CA, 830 nM.

With `COc1cc(-c2ccccc2C)c(S(=O)(=O)N2CCC(F)(C(=O)N[C@H](C)/C=C\S(C)(=O)=O)CC2)cn1` [Compound 193, (R,Z)-4-fluoro-1-((6-methoxy-4-(o-tolyl)pyridin-3-yl)sulfonyl)-N-(4-(methylsulfonyl)but-3-en-2-yl)piperidine-4-carboxamide], the IC50 against PIK3CA_C242 is 284 nM; on PIK3CA, 290 nM.

For `COc1ccc(Cl)c(-c2cc(Cl)ccc2S(=O)(=O)N2CCC(F)(C(=O)N[C@@H](C)/C=C\S(C)(=O)=O)CC2)c1` [Compound 16, (S,Z)-1-((2′,5-dichloro-5′-methoxy-[1,1′-biphenyl]-2-yl)sulfonyl)-4-fluoro-N-(4-(methylsulfonyl)but-3-en-2-yl)piperidine-4-carboxamide], the IC50 is 210 nM against PIK3CA_C242 and 200 nM at PIK3CA.

As to `CCOc1ccc(S(=O)(=O)N2CCC(F)(C(=O)N[C@H](C)/C=C\S(C)(=O)=O)CC2)c(-c2ccccc2C)c1` [Compound 102, (R,Z)-1-((5-ethoxy-2′-methyl-[1,1′-biphenyl]-2-yl)sulfonyl)-4-fluoro-N-(4-(methylsulfonyl)but-3-en-2-yl)piperidine-4-carboxamide], the values for the IC50 at PIK3CA_C242 and at PIK3CA were 610 nM and 730 nM, respectively.

`C[C@H](/C=C\S(C)(=O)=O)NC(=O)C1(F)CCN(S(=O)(=O)c2ccc(N3CCCC3)cc2-c2ccccc2)CC1` [Compound 117, (R,Z)-4-fluoro-N-(4-(methylsulfonyl)but-3-en-2-yl)-1-((5-(pyrrolidin-1-yl)-[1,1′-biphenyl]-2-yl)sulfonyl)piperidine-4-carboxamide]: the IC50 was 810 nM at PIK3CA_C242 and 830 nM at PIK3CA.

With `COc1cc(-c2ccccc2Cl)c(S(=O)(=O)N2CCC(F)(C(=O)N[C@H](C)/C=C\S(C)(=O)=O)CC2)cn1` [Compound 186, 1-[[4-(2-chlorophenyl)-6-methoxy-3-pyridyl]sulfonyl]-4-fluoro-N—[(Z,1R)-1-methyl-3-methylsulfonyl-allyl]piperidine-4-carboxamide], the values for the IC50 on PIK3CA_C242 and on PIK3CA were 226 nM and 493 nM, respectively.

With `C[C@@H](/C=C\S(C)(=O)=O)NC(=O)C1(F)CCN(S(=O)(=O)c2ccc(Cl)cc2-c2cccc(C#N)c2)CC1` [Compound 8, (S,Z)-1-((5-chloro-3′-cyano-[1,1′-biphenyl]-2-yl)sulfonyl)-4-fluoro-N-(4-(methylsulfonyl)but-3-en-2-yl)piperidine-4-carboxamide], the IC50 was determined as 1350 nM against PIK3CA_C242 and 690 nM at PIK3CA.

Turning to `COc1ccc(S(=O)(=O)N2CCC(F)(C(=O)N[C@H](C)/C=C\S(C)(=O)=O)CC2)c(-c2cccc(Cl)c2)c1` [Compound 22, (R,Z)-1-((3′-chloro-5-methoxy-[1,1′-biphenyl]-2-yl)sulfonyl)-4-fluoro-N-(4-(methylsulfonyl)but-3-en-2-yl)piperidine-4-carboxamide], the values for the IC50 against PIK3CA_C242 and at PIK3CA were 785 nM and 770 nM, respectively.

Turning to `Cc1ccccc1-c1cc(OC2CC2)ccc1S(=O)(=O)N1CCC(F)(C(=O)N[C@H](C)/C=C\S(C)(=O)=O)CC1` [Compound 106, (R,Z)-1-((5-cyclopropoxy-2′-methyl-[1,1′-biphenyl]-2-yl)sulfonyl)-4-fluoro-N-(4-(methylsulfonyl)but-3-en-2-yl)piperidine-4-carboxamide], the IC50 worked out at 310 nM at PIK3CA_C242 and 820 nM at PIK3CA.

`COc1ccc(S(=O)(=O)N2CCC(F)(C(=O)N[C@H](C)/C=C/C#N)CC2)c(-c2ccccc2Cl)c1` [Compound 229, (R,E)-1-((2′-chloro-5-methoxy-[1,1′-biphenyl]-2-yl)sulfonyl)-N-(4-cyanobut-3-en-2-yl)-4-fluoropiperidine-4-carboxamide]: the IC50 against PIK3CA_C242 amounted to 970 nM; on PIK3CA it was 1100 nM.

As for `COc1ccc(S(=O)(=O)N2CCC(F)(C(=O)N[C@H](C)/C=C\S(C)(=O)=O)CC2)c(-c2ccc(F)cc2Cl)c1` [Compound 27, (R,Z)-1-((2′-chloro-4′-fluoro-5-methoxy-[1,1′-biphenyl]-2-yl)sulfonyl)-4-fluoro-N-(4-(methylsulfonyl)but-3-en-2-yl)piperidine-4-carboxamide], the IC50 is 430 nM on PIK3CA_C242 and 450 nM on PIK3CA.

Turning to `COc1ccc(S(=O)(=O)N2CCC(F)(C(=O)N[C@H](C)/C=C\S(C)(=O)=O)CC2)c(-c2ccccc2)c1` [Compound 21, (R,Z)-4-fluoro-1-((5-methoxy-[1,1′-biphenyl]-2-yl)sulfonyl)-N-(4-(methylsulfonyl)but-3-en-2-yl)piperidine-4-carboxamide], the results for the IC50 against PIK3CA_C242 and at PIK3CA were 1230 nM and 1000 nM, respectively.

For `COc1cc(-c2ccccc2Cl)c(S(=O)(=O)N2CCC(F)(C(=O)N[C@H](C)/C=C\S(C)(=O)=O)CC2)cc1OC` [Compound 202, (R,Z)-1-((2′-chloro-4,5-dimethoxy-[1,1′-biphenyl]-2-yl)sulfonyl)-4-fluoro-N-(4-(methylsulfonyl)but-3-en-2-yl)piperidine-4-carboxamide], the IC50 at PIK3CA_C242 and on PIK3CA was 180 nM each time.

Consider `CCCNC(=O)c1cccc(-c2cc(Cl)ccc2S(=O)(=O)N2CCC(F)(C(=O)N[C@@H](C)/C=C\S(C)(=O)=O)CC2)c1` [Compound 279, (S,Z)-1-((5-chloro-3′-(propylcarbamoyl)-[1,1′-biphenyl]-2-yl)sulfonyl)-4-fluoro-N-(4-(methylsulfonyl)but-3-en-2-yl)piperidine-4-carboxamide], for which the IC50 was 1530 nM against PIK3CA_C242 and 1000 nM on PIK3CA.

`COc1ccc(S(=O)(=O)N2CCC(F)(C(=O)N[C@@H](C)/C=C\S(C)(=O)=O)CC2)c(-c2ccccc2)c1` [Compound 4, (S,Z)-4-fluoro-1-((5-methoxy-[1,1′-biphenyl]-2-yl)sulfonyl)-N-(4-(methylsulfonyl)but-3-en-2-yl)piperidine-4-carboxamide]: the IC50 is 206 nM on PIK3CA_C242 and 140 nM on PIK3CA.

As for `COCc1cccc(-c2cc(Cl)ccc2S(=O)(=O)N2CCC(F)(C(=O)N[C@@H](C)/C=C\S(C)(=O)=O)CC2)c1` [Compound 126, (S,Z)-1-((5-chloro-3′-(methoxymethyl)-[1,1′-biphenyl]-2-yl)sulfonyl)-4-fluoro-N-(4-(methylsulfonyl)but-3-en-2-yl)piperidine-4-carboxamide], the IC50 against PIK3CA_C242 stood at 816 nM; at PIK3CA, 430 nM.

Take `COc1ccc(Cl)c(-c2cc(N(C)C)ccc2S(=O)(=O)N2CCC(F)(C(=O)N[C@@H](C)/C=C\S(C)(=O)=O)CC2)c1` [Compound 87, (S,Z)-1-((2′-chloro-5-(dimethylamino)-5′-methoxy-[1,1′-biphenyl]-2-yl)sulfonyl)-4-fluoro-N-(4-(methylsulfonyl)but-3-en-2-yl)piperidine-4-carboxamide]: the IC50 against PIK3CA_C242 was 400 nM; at PIK3CA, 390 nM.

Take `C[C@H](/C=C/C(=O)N1CC(F)(F)C1)NC(=O)C1(F)CCN(S(=O)(=O)c2ccc(Br)cc2-c2ccccc2Cl)CC1` [Compound 135, (R,E)-1-((5-bromo-2′-chloro-[1,1′-biphenyl]-2-yl)sulfonyl)-N-(5-(3,3-difluoroazetidin-1-yl)-5-oxopent-3-en-2-yl)-4-fluoropiperidine-4-carboxamide]: the IC50 against PIK3CA_C242 was found to be 120 nM; at PIK3CA it was 87.2 nM.
